Assay results taken from publication PMC10821229, “Synthesis and Antiviral Activity of Novel β-D-N4-Hydroxycytidine Ester Prodrugs as Potential Compounds for the Treatment of SARS-CoV-2 and Other Human Coronaviruses” (Pharmaceuticals, 2023).

What was measured:
HIV = conditions: compared with emtricitabine (FTC); cited from earlier work
SARS-CoV-2 EG.5.1.1 = assay: Inhibition of virus-induced cytopathic effect (MTT), SARS-CoV-2 EG.5.1.1; assay type: cell-based; conditions: Severe acute respiratory syndrome coronavirus 2
HCoV-229E = assay: Inhibition of virus-induced cytopathic effect (MTT), HCoV-229E; assay type: cell-based; conditions: Human coronavirus 229E, CPE inhibition, 100 TCID50, 72–96 h
SARS-CoV-2 XBB.1.16 = assay: Inhibition of virus-induced cytopathic effect (MTT), SARS-CoV-2 XBB.1.16; assay type: cell-based; conditions: Severe acute respiratory syndrome coronavirus 2
SARS-CoV-2 BQ.1.1.45 = assay: Inhibition of virus-induced cytopathic effect (MTT), SARS-CoV-2 BQ.1.1.45; assay type: cell-based; conditions: Severe acute respiratory syndrome coronavirus 2
[1] = Cytotoxicity (CC50) in Vero E6 and huh-7 cells; assay type: cell-based; conditions: African green monkey (Vero E6) and human (huh-7), Vero E6 cells and huh-7 cells

Row | SMILES | times higher anti-HIV activity than the parent drug (HIV) | IC50 (SARS-CoV-2 EG.5.1.1) | IC50 (HCoV-229E) | IC50 (SARS-CoV-2 XBB.1.16) | IC50 (SARS-CoV-2 BQ.1.1.45) | CC50 [1]
1 | CCCCCCCCCCCCCC(=O)OC[C@@H]1O[C@H](n2cc(F)c(N)nc2=O)CS1 | 10–24 times |  |  |  |  | 
2 | Cc1ccc(CC(=O)OC[C@H]2O[C@@H](n3ccc(NO)nc3=O)[C@H](O)[C@@H]2O)cc1 [SN_14, 5′-O-(4-Methylphenyl)acetyl-N4-hydroxycytidine] |  | 1.09 µM | 10.5 µM | 2.16 µM | 0.7 µM | ≥ 50 µM
3 | COc1ccc(CC(=O)OC[C@H]2O[C@@H](n3ccc(NO)nc3=O)[C@H](O)[C@@H]2O)cc1 [SN_16, 5′-O-(4-Methoxyphenyl)acetyl-N4-hydroxycytidine] |  | 0.56 µM | 7.29 µM | 2.02 µM | 0.71 µM | ≥ 50 µM
4 | COc1cccc(CC(=O)OC[C@H]2O[C@@H](n3ccc(NO)nc3=O)[C@H](O)[C@@H]2O)c1 [SN_15, 5′-O-(3-Methoxyphenyl)acetyl-N4-hydroxycytidine] |  | 0.53 µM | 11.1 µM | 2.09 µM | 0.74 µM | ≥ 50 µM
5 | O=C(COc1ccccc1)OC[C@H]1O[C@@H](n2ccc(NO)nc2=O)[C@H](O)[C@@H]1O [SN_21, 5′-O-Phenoxyacetyl-N4-hydroxycytidine] |  | 0.83 µM | 5.13 µM | 1.28 µM | 0.86 µM | ≥ 50 µM
6 | O=C(Cc1ccccc1Cl)OC[C@H]1O[C@@H](n2ccc(NO)nc2=O)[C@H](O)[C@@H]1O [SN_19, 5′-O-(2-Chlorophenyl)acetyl-N4-hydroxycytidine] |  | 2.16 µM | 23.8 µM | 5.71 µM | 2.34 µM | ≥ 50 µM
7 | CC(C)C(=O)OC[C@H]1O[C@@H](n2ccc(NO)nc2=O)[C@H](O)[C@@H]1O [EIDD-2801, Molnupiravir, reference compound] |  | 0.53 µM | 3.44 µM | 1.51 µM | 0.31 µM | ≥ 50 µM
8 | O=C(OC[C@H]1O[C@@H](n2ccc(NO)nc2=O)[C@H](O)[C@@H]1O)C1(c2ccccc2)CC1 [SN_20, 5′-O-(1-Phenylcyclopropanoyl-1-carbonyl)-N4-hydroxycytidine] |  | > 100 µM | > 100 µM | > 100 µM | ≥ 50 µM | ≥ 50 µM
9 | O=C(Cc1ccccc1F)OC[C@H]1O[C@@H](n2ccc(NO)nc2=O)[C@H](O)[C@@H]1O [SN_17, 5′-O-(2-Fluorophenyl)acetyl-N4-hydroxycytidine] |  | 0.98 µM | 7.86 µM | 1.69 µM | 0.65 µM | ≥ 50 µM
10 | Cc1cccc(OCC(=O)OC[C@H]2O[C@@H](n3ccc(NO)nc3=O)[C@H](O)[C@@H]2O)c1 [SN_22, 5′-O-(3-Methylphenoxy)acetyl-N4-hydroxycytidine] |  | 0.2 µM | 1.62 µM | 0.25 µM | 0.21 µM | ≥ 50 µM
11 | COc1cccc(CCC(=O)OC[C@H]2O[C@@H](n3ccc(NO)nc3=O)[C@H](O)[C@@H]2O)c1 [SN_23, 5′-O-3-(3-Methoxyphenyl)propanoyl-N4-hydroxycytidine] |  | 0.3 µM | 1.68 µM | 1.02 µM | 0.26 µM | ≥ 50 µM
12 | O=C(Cc1ccc(F)cc1)OC[C@H]1O[C@@H](n2ccc(NO)nc2=O)[C@H](O)[C@@H]1O [SN_18, 5′-O-(4-Fluorophenyl)acetyl-N4-hydroxycytidine] |  | 1.78 µM | 21 µM | 2.76 µM | 1.21 µM | ≥ 50 µM
